Data from PubChem BioAssay (NCI).
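Briefly, cells in 96-well plates were exposed to five compound concentrations for 48 h, and endpoints were estimated by linear interpolation. GI50 is the concentration that inhibits growth by half. TGI is the concentration that stops growth completely.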

How the values were obtained:
Experiment in all cases: NCI tumour cell line growth inhibition, 48 h
HCT-116 colon = system: HCT-116 colon
HCT-15 colon = system: HCT-15 colon
SNB-19 CNS = system: SNB-19 CNS
EKVX NSCLC = system: EKVX NSCLC
RXF 393 renal = system: RXF 393 renal
K-562 leukemia = system: K-562 leukemia
HT29 colon = system: HT29 colon
SF-268 CNS = system: SF-268 CNS
CCRF-CEM leukemia = system: CCRF-CEM leukemia
SF-539 CNS = system: SF-539 CNS

SMILES | TGI (HCT-116 colon) [µM] | TGI (HCT-15 colon) [µM] | TGI (SNB-19 CNS) [µM] | TGI (EKVX NSCLC) [µM] | TGI (RXF 393 renal) [µM] | TGI (K-562 leukemia) [µM] | TGI (HT29 colon) [µM] | TGI (SF-268 CNS) [µM] | TGI (CCRF-CEM leukemia) [µM] | TGI (SF-539 CNS) [µM] | GI50 (HCT-116 colon) [µM] | GI50 (HCT-15 colon) [µM] | GI50 (SNB-19 CNS) [µM] | GI50 (SF-539 CNS) [µM] | GI50 (RXF 393 renal) [µM] | GI50 (K-562 leukemia) [µM] | GI50 (HT29 colon) [µM] | GI50 (SF-268 CNS) [µM] | GI50 (CCRF-CEM leukemia) [µM] | GI50 (EKVX NSCLC) [µM]
COc1cccc(C2c3cc4c(cc3OC(C)(N3CCCC3)C2C)OCO4)c1OC (centres undefined) | 17.7 | 30.7 | 95.5 | 78.2 | 86.7 | 53.1 | 22.3 | 81.3 | 35.7 | – | – | – | – | – | – | – | – | – | – | –
COC(=O)C1=C(c2ccc(OC)c(OC)c2)OC(c2ccc(OC)c(OC)c2)C1 (centres undefined) | > 100 | > 100 | – | > 100 | 69.9 | > 100 | > 100 | > 100 | > 100 | > 100 | – | – | – | – | – | – | – | – | – | –
CC(=O)N[C@@H](Cc1ccc(OP(=O)(O)O)cc1)C(=O)N[C@H]1CCC(=O)N2CCC[C@@H](C(=O)NCc3ccc(Cl)cc3)N2C1=O | > 25 | > 25 | > 25 | – | > 25 | > 25 | > 25 | > 25 | > 25 | > 25 | > 25 | > 25 | > 25 | > 25 | > 25 | > 25 | > 25 | > 25 | > 25 | –
CC(C)(C)NNC(=O)/C(=C/c1ccc([N+](=O)[O-])cc1)NC(=O)c1ccccc1 | – | > 100 | > 100 | > 100 | > 100 | > 100 | > 100 | > 100 | 99.1 | > 100 | – | – | – | – | – | – | – | – | – | –
C/C(CN1C(=O)c2ccccc2C1=O)=N\NS(=O)(=O)c1ccc(C)cc1 | > 100 | > 100 | > 100 | > 100 | – | > 100 | > 100 | – | > 100 | > 100 | – | – | – | – | – | – | – | – | – | –
N=C(N)c1ccc(OCc2cccc(COc3ccc(C(=N)N)cc3)c2)cc1 | 16.9 | > 100 | > 100 | 8.25 | – | 19 | > 100 | 18.5 | – | 5.1 | 5.22 | 17.8 | 5.75 | 1.92 | – | 3.62 | 7.64 | 5.53 | – | 2.85
O=C(Nc1c(O)[nH]c(=S)[nH]c1=O)c1ccccc1F | > 100 | > 100 | > 100 | – | – | > 100 | > 100 | > 100 | > 100 | > 100 | – | – | – | – | – | – | – | – | – | –
NC1=NC(=O)/C(=C/c2ccccc2[N+](=O)[O-])C(N)=N1 | > 100 | > 100 | > 100 | > 100 | > 100 | > 100 | > 100 | – | > 100 | > 100 | – | – | – | – | – | – | – | – | – | –
Nc1c(C(=O)c2cccc(CCCN3CCOCC3)c2)cnn1-c1ccc(F)cc1 | > 25 | > 25 | > 25 | – | > 25 | > 25 | > 25 | > 25 | > 25 | > 25 | > 25 | > 25 | > 25 | > 25 | > 25 | > 25 | > 25 | > 25 | > 25 | –
